Reference: patent US10064862B2, “Antiviral axin stabilizer” (priority 2014, dated 2018)
“Also recorded” adds a separate entry of the source.

How the values were obtained:
Axin1 [1] = format: in vivo, mouse; conditions: oral administration of RN-1 for 24 hours, 50 mg/kg
Axin1 [2] = experiment: Axin1 stabilization in A549 cells (immunostaining, Western blot); format: cell-based, human
[3] = test system: IFN and IFN-stimulated gene (ISG) expression; experiment: IFNα1 and MX1 mRNA by Real-time PCR in primary mouse alveolar epithelial cells; format: cell-based
[4] = test system: H1N1 influenza A/PR/8/34 virus; format: cell-based
A549 cells = conditions: all the concentrations tested (30-80,000 nM), MTT assay
[5] = test system: H1N1 influenza A/PR/8/34 virus; experiment: Lethal influenza virus challenge in mice (lung virus titer, survival); format: in vivo, mouse; conditions: for survival rate after lethal virus challenge: mice, 1,000 pfu, RN-1 50 mg/kg orally daily, -1 to 2 or 4 dpi
Protocol: Mice were challenged intranasally with a lethal dose (1,000 pfu) of H1N1 influenza A/PR/8/34 virus. […] Control animals received vehicle alone. […] (C) Virus titer in the homogenized infected lungs at 2 dpi was measured by TCID50 assay in MDCK cells and normalized to total protein amount. […] Data shown are means±s.e.m. and tested for statistical significance by Student's t-test. (D) Survival rate. […] Mantel-Cox χ2 test on Kaplan-Meier survival data was used to compare the survival rate between groups.
Male C57BL/6N mice (6-8 week old) were challenged intranasally with a lethal dose (1,000 pfu) of influenza virus A/PR/8/34 H1N1 under anesthesia. […] Control animals were given vehicle alone in the same formulation. All animals were observed daily for body weight loss and clinical signs of disease such as ruffled fur, inactivity and difficulty in breathing until 21 days post infection.
MDCK cells in 96-well plates were infected with serial dilutions (10^−1 to 10^−7) of virus samples in serum-free complete EMEM containing 1 μg/ml TPCK-treated trypsin for 1 hour. The cells were re-fed with the same medium for 4 days. TCID50 values (median tissue culture infective dose) were calculated by the method of Reed and Muench.
The results were analyzed by one-way ANOVA followed with posthoc Tukey's test for multiple comparisons of control and treatment groups, or Student's t-test using GraphPad Prism (version 6). Survival rates between groups were analyzed by Mantel-Cox χ2 test on Kaplan-Meier probability estimates using GraphPad Prism. All results were reported as mean±s.e.m.

[6] = test system: nonO/p54(nrb), SFPQ, and hnRNP M; format: cell-based, human; conditions: A549 cells, 20 μM RN-1 24 hours pretreatment, MOI=2
[7] = test system: H1N1 influenza A/PR/8/34 virus; experiment: organism not typed; format: cell-based
herpes simplex virus = conditions: previously reported; cited from earlier work
ISRE activity = experiment: ISRE_Luc dual-luciferase assay in OE-Axin1 HEK293 cells pretreated with inhibitors; format: cell-based, human; conditions: 10 μM inhibitor, OE-Axin1, MOI=2 for 8 hours
[8] = test system: Axin1-stimulated IFN response; experiment: Axin1-stimulated IFN and ISG mRNA in OE-Axin1 HEK293 cells pretreated with inhibitors; format: cell-based, human; conditions: OE-Axin1, MOI=2
[9] = test system: H1N1 influenza A/PR/8/34 virus; experiment: Viral gene mRNA in OE-Axin1 HEK293 cells pretreated with inhibitors; format: cell-based
[10] = test system: H1N1 influenza A/PR/8/34 virus; format: cell-based; conditions: E10 cells, 250 ng/ml rhWnt3a or 50% Wnt3a_CM 24 hours pretreatment, MOI=2 for 18 hours
[11] = test system: influenza virus A/Puerto Rico/8/1934 H1N1; format: in vivo, mouse; conditions: mice, 250 pfu, 50 μl 10× Wnt3a_CM intranasally 4 hours before and 2 days post infection, lungs day 5
[12] = primary mouse alveolar epithelial cells during virus infection, 20 μM RN-1, 12 hpi
[13] = 10 μM inhibitor 6 hours pretreatment

Oc1nc(-c2ccc(C(F)(F)F)cc2)nc2c1CSCC2 [RN-1, 3,5,7,8-Tetrahydro-2-[4-(trifluoromethyl)phenyl]-4H-thiopyrano[4,3-d]pyrimidin-4-one]
Axin1 protein in the mouse lung (Axin1 [1]): successfully stabilized Axin1 | Axin1 protein during influenza virus infection (Axin1 [2]): Axin1 was not degraded | mRNA expression of IFNα1 [3, 12]: increased the mRNA expression | mRNA expression of the ISG MX1 [3, 12]: increased the mRNA expression | baseline IFN gene expression ([3]; uninfected cells): had no effects | virus replication (virus titer) [4]: notably inhibited; also recorded: significantly inhibited virus replication | cell viability (A549 cells): did not affect cell viability | survival rate after lethal virus challenge [5]: dramatically improved | survival rate after lethal virus challenge ([5]; listed as XAV939): protected animals from lethal influenza virus challenge | influenza virus replication in vivo (virus titer in infected lungs at 2 dpi) ([5]; mouse, in vivo, po): significantly attenuated | degradation of nonO/p54(nrb), SFPQ and hnRNP M [6]: stimulated the degradation of all three proteins | maximum inhibition of influenza virus replication [7]: over 99% | virus replication (virus titer in supernatants) [7]: significantly attenuated | EC50 ([7]; A549, 24 h, read-out: EC50 of attenuation of influenza virus replication (virus titers in culture media)): 0.419 µM | herpes simplex virus replication (herpes simplex virus): inhibit herpes simplex virus replication

COc1cc2c(cc1OC)CN(C(=O)/C=C/c1c(-c3ccccc3)n(C)c3ncccc13)CC2 [SIS3]
Axin1-stimulated ISRE activity (ISRE activity): the same inhibitory effect | Axin1-stimulated IFN mRNA expression (IFNβ1, IFNα1, IFNα7, IFNλ1) [8, 13]: the same inhibitory effect on Axin1-elevated anti-viral machinery except IFNβ1 synthesis (FIG. 7A) and MX1 expression (FIG. 7E); also recorded: only inhibited Axin1-induced expression of IFNα but not IFNβ1 | Axin1-stimulated ISGs expression (OAS1, MX1, IP10) [8, 13]: the same inhibitory effect on Axin1-elevated anti-viral machinery except IFNβ1 synthesis (FIG. 7A) and MX1 expression (FIG. 7E) | Axin1-regulated Type I and Type III IFN synthesis ([8]; 10 μM inhibitor): the same inhibitory effect in both scenarios | effect on Axin1-mediated attenuation of influenza virus replication (viral gene mRNA) [9]: relived Axin1-mediated attenuation of influenza virus replication

B1: Wnt3a: activator of Wnt/β-catenin signaling, given as rhWnt3a or Wnt3a_CM (protein, UniProt P56704 19-352, looked up)
Protein Wnt-3a: SYPIWWSLAVGPQYSSLGSQPILCASIPGLVPKQLRFCRNYVEIMPSVAEGIKIGIQECQHQFRGRRWNCTTVHDSLAIFGPVLDKATRESAFVHAIASAGVAFAVTRSCAEGTAAICGCSSRHQGSPGKGWKWGGCSEDIEFGGMVSREFADARENRPDARSAMNRHNNEAGRQAIASHMHLKCKCHGLSGSCEVKTCWWSQPDFRAIGDFLKDKYDSASEMVVEKHRESRGWVETLRPRYTYFKVPTERDLVYYEASPNFCEPNPETGSFGTRDRTCNVSSHGIDGCDLLCCGRGHNARAERRREKCRCVFHWCCYVSCQECTRVYDVHTCK
virus replication in vitro (viral gene mRNA) [10]: dramatically promotes virus replication | virus replication in vivo (viral gene mRNA in lungs) [11]: dramatically promotes virus replication
